Reference: patent US20240409557A1, “5,6-FUSED AND 6,6-FUSED BICYCLIC ALCOHOLS AND ETHERS AND COMPOSITIONS FOR USE AS 15-PROSTAGLANDIN DEHYDROGENASE MODULATORS” (AMGEN INC., priority 2023, published 2024)

Key:
[1] = target: T1, human recombinant 15-PGDH (Homo sapiens, UniProt P15428); assay: Recombinant 15-PGDH enzymatic inhibition assay (PGDH-Lumi, NADH signal); type: biochemical; details: recombinant 15-PGDH; 15 min pre-incubation, 60 min reaction with PGE2 and NAD+, NADH signal
T1 sequence (P15428 1-266): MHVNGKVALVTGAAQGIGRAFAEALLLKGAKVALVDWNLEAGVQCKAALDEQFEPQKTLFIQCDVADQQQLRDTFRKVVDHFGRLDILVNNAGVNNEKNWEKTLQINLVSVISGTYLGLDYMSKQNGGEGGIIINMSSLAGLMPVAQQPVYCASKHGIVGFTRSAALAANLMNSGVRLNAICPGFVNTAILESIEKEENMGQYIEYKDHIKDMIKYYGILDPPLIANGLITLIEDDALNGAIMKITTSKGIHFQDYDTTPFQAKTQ
In short: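 Recombinant 15-PGDH pre-incubated 15 min at room temperature with compound (22 concentrations, 2-fold dilutions) in 50 mM Tris pH 7.5, 0.01% Tween-20, […].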

15-PGDH in A549 cells = target: T2, 15-PGDH in A549 cells (Homo sapiens, UniProt P15428); assay: A549 cellular 15-PGDH assay (PGE2 accumulation, HTRF); type: cell-based; details: interleukin-stimulated, inhibitor 24 hrs, PGE2 by competitive HTRF, read-out: A549 Cell Assay IC50
T2 construct: endogenous in cells; host or cells: A549
T2 sequence (P15428 1-266): T1 sequence (P15428 1-266)
In short: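 IL-13-stimulated A549 lung carcinoma cells released PGE2, which was measured in supernatants by competitive HTRF with a Eu-cryptate anti-PGE2 antibody and labelled PGE2. Signal falls as PGE2 rises. IC50 values were derived from the binding data.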

IC50 [1] | IC50 (15-PGDH in A549 cells) | Compound
0.399 nM | 0.0094 nM | [2H][C@](O)(c1cc2ccc(-c3cnc4nn(C)cc4c3)nc2s1)C1CC(F)(F)C1 (single isomer, unassigned) [Compound B79R]
0.3 nM | 0.0513 nM | Cn1cc2cc(-c3ccc4cc([C@]5(O)C[C@@H](C(F)(F)F)C5)sc4n3)cnc2n1 [Compound C29C, cis-1-(6-(2-methyl-2H-pyrazolo[3,4-b]pyridin-5-yl)thieno[2,3-b]pyridin-2-yl)-3-(trifluoromethyl)cyclobutanol]
0.544 nM | 1.09 nM | Cn1cc2cc(-c3ccc4cc([C@H](O)C56CC(C(F)(F)F)(C5)C6)sc4n3)cnc2n1 (single isomer, unassigned) [Compound B91R]
1.12 nM | 0.504 nM | CO[C@H]1C[C@H]([C@H](O)c2cc3ccc(-c4cnc5nn(C)cc5c4)nc3s2)C1 (single isomer, unassigned) [Compound B88ST]
0.294 nM | 0.788 nM | Cn1cc2cc(-c3ccc4nc([C@]5(O)C[C@@H](OC(F)(F)F)C5)sc4n3)cnc2n1 [Compound C105C, cis-1-(5-(2-methyl-2H-pyrazolo[3,4-b]pyridin-5-yl)[1,3]thiazolo[5,4-b]pyridin-2-yl)-3-(trifluoromethoxy)cyclobutanol]
0.35 nM | 0.406 nM | Cn1cc2cc(-c3ccc4cc([C@@H](O)C5CC(F)(F)C5)sc4n3)cnc2n1 (single isomer, unassigned) [Compound B30S]
1030 nM | 354 nM | Cn1cc2cc(-c3ccc4cc([C@]5(O)C[C@@H](C(F)F)C5)ccc4n3)cnc2n1 [Compound D6C, cis-3-(difluoromethyl)-1-(2-(2-methyl-2H-pyrazolo[3,4-b]pyridin-5-yl)-6-quinolinyl)cyclobutanol]
0.426 nM | 1.11 nM | CO[C@]1(C(F)(F)F)C[C@](O)(c2cc3cnc(-c4cnc5nn(C)cc5c4)nc3s2)C1 (single isomer, unassigned) [Compound C113T, trans-3-methoxy-1-(2-(2-methyl-2H-pyrazolo[3,4-b]pyridin-5-yl)thieno[2,3-d]pyrimidin-6-yl)-3-(trifluoromethyl)cyclobutanol]
0.458 nM | 0.192 nM | Cn1cc2cc(-c3ccc4nc([C@]5(O)C[C@@H](C(F)(F)F)C5)sc4n3)cnc2n1 [Compound C74C, cis-1-(5-(2-methyl-2H-pyrazolo[3,4-b]pyridin-5-yl)[1,3]thiazolo[5,4-b]pyridin-2-yl)-3-(trifluoromethyl)cyclobutanol]
0.209 nM | 0.745 nM | COCC[C@@H](O)c1cc2ccc(-c3cnc4nn(C)cc4c3)nc2s1 (single isomer, unassigned) [Compound B29R]
0.356 nM | 0.157 nM | CO[C@H]1C[C@](O)(c2cc3ccc(-c4cnc5nn(C)cc5c4)nc3s2)C1 [Compound C31C, cis-3-methoxy-1-(6-(2-methyl-2H-pyrazolo[3,4-b]pyridin-5-yl)thieno[2,3-b]pyridin-2-yl)cyclobutanol]
0.244 nM | 0.381 nM | Cn1cc2cc(-c3ccc4cc([C@H](O)[C@@H]5CCOC5)sc4n3)cnc2n1 (single isomer, unassigned) [Compound B19RR]
0.47 nM | 0.492 nM | Cn1cc2cc(-c3ccc4cc([C@H](O)[C@H]5C[C@@H](C(F)(F)F)C5)sc4n3)cnc2n1 (single isomer, unassigned) [Compound B84RC]
1.18 nM | 0.997 nM | Cn1cc2cc(-c3ccc4cc([C@]5(O)C[C@@]6(CCO6)C5)sc4n3)cnc2n1 (single isomer, unassigned) [Compound C56T, trans-6-(6-(2-methyl-2H-pyrazolo[3,4-b]pyridin-5-yl)thieno[2,3-b]pyridin-2-yl)-1-oxaspiro[3.3]heptan-6-ol]
286 nM | 1.61 nM | Cn1cc2cc(-c3ccc4cc([C@@H](O)C5(C)CC(F)(F)C5)sc4n3)cnc2n1 (single isomer, unassigned) [Compound B86S]

More lines, now with the values behind:

Compound | IC50 [1] | IC50 (15-PGDH in A549 cells)
Cn1cc2cc(-c3cc(C4CC4)c4cc(C(O)C5CCC5)sc4n3)cnc2n1 (single isomer, unassigned) [Compound B8, cyclobutyl(4-cyclopropyl-6-(2-methyl-2H-pyrazolo[3,4-b]pyridin-5-yl)thieno[2,3-b]pyridin-2-yl)methanol] | 0.393 nM | 0.919 nM
Cn1cc2cc(-c3ccc4sc([C@@H](O)C5CC(F)(F)C5)cc4n3)cnc2n1 (single isomer, unassigned) [Compound B73S] | 0.791 nM | 0.863 nM
Cn1nnc2cc(-c3ccc4ccc([C@@H](O)C5CCOCC5)cc4n3)cnc21 (single isomer, unassigned) [Compound D3S] | 11500 nM | > 750 nM
CCn1cc2cc(-c3ccc4cc([C@H](O)C5CC(F)(F)C5)sc4n3)cnc2n1 (single isomer, unassigned) [Compound B53R] | 0.222 nM | 0.354 nM
Cn1ncc2cc(-c3ccc4cc([C@H](O)C5CCOCC5)sc4n3)ccc21 (single isomer, unassigned) [Compound B34R] | 12.4 nM | 39.8 nM
Cn1cc2cc(-c3ncc4sc([C@]5(O)C[C@@H](C(F)F)C5)cc4n3)cnc2n1 [Compound C89C, cis-3-(difluoromethyl)-1-(2-(2-methyl-2H-pyrazolo[3,4-b]pyridin-5-yl)thieno[3,2-d]pyrimidin-6-yl)cyclobutanol] | 33.8 nM | 49.1 nM
O[C@@H](c1cc2ccc(-c3cnc4[nH]nnc4c3)nc2s1)C1CCOCC1 (single isomer, unassigned) [Compound B44R] | 0.464 nM | 2.61 nM
O[C@H](c1cc2ccc(-c3ccc4nccnc4c3)nc2s1)C1CC(F)(F)C1 (single isomer, unassigned) [Compound B52S] | 1.6 nM | 11.7 nM
Cn1cc2cc(-c3ccc4ccc([C@@H](O)C5CC(F)(F)C5)cc4n3)cnc2n1 (single isomer, unassigned) [Compound D1S] | 1.17 nM | 0.656 nM
Cn1nnc2cc(-c3ncc4cc([C@]5(O)C[C@@](C)(C#N)C5)sc4n3)cnc21 (single isomer, unassigned) [Compound C98C, cis-3-hydroxy-1-methyl-3-(2-(3-methyl-3H-[1,2,3]triazolo[4,5-b]pyridin-6-yl)thieno[2,3-d]pyrimidin-6-yl)cyclobutanecarbonitrile] | 8.69 nM | 18.7 nM
OC1(c2cc3ccc(-c4ccc5oncc5c4)nc3s2)CC(F)(F)C1 [Compound C50, 1-(6-(1,2-benzoxazol-5-yl)thieno[2,3-b]pyridin-2-yl)-3,3-difluorocyclobutanol] | 34.7 nM | 11.1 nM
Cn1nnc2cc(-c3ncc4cc([C@]5(O)C[C@@H](C(F)(F)F)C5)sc4n3)cnc21 [Compound C95C, cis-1-(2-(3-methyl-3H-[1,2,3]triazolo[4,5-b]pyridin-6-yl)thieno[2,3-d]pyrimidin-6-yl)-3-(trifluoromethyl)cyclobutanol] | 1.26 nM | 9.76 nM
Cn1cc2cc(-c3ccc4cc(C(O)CCC(F)(F)F)sc4c3)cnc2n1 (stereo not shown) [Compound B60, 4,4,4-trifluoro-1-(6-(2-methyl-2H-pyrazolo[3,4-b]pyridin-5-yl)-1-benzothiophen-2-y1)-1-butanol] | 3.03 nM | 9.36 nM
CC(O)c1cc2c(-c3ccnn3C)cc(-c3cnc4nn(C)cc4c3)nc2s1 (stereo not shown) [Compound B6, 1-(4-(1-methyl-1H-pyrazol-5-yl)-6-(2-methyl-2H-pyrazolo[3,4-b]pyridin-5-yl)thieno[2,3-b]pyridin-2-yl)ethan-1-ol] | 2.93 nM | 39.4 nM
[2H]C(O)(c1cc2ccc(-c3cnc4nn(C)cc4c3)nc2s1)C1CCOCC1 (stereo not drawn) [Compound B66, (6-(2-methyl-2H-pyrazolo[3,4-b]pyridin-5-yl)thieno[2,3-b]pyridin-2-yl)(tetrahydro-2H-pyran-4-yl)methan-d-ol] | 0.948 nM | 0.829 nM
Cn1cc2cc(-c3cnc4cc([C@H](O)C5CC(F)(F)C5)sc4n3)cnc2n1 [Compound B92R, (R)-(3,3-difluorocyclobutyl)(3-(2-methyl-2H-pyrazolo[3,4-b]pyridin-5-yl)thieno[2,3-b]pyrazin-6-yl)methanol] | 0.511 nM | 0.409 nM
Cc1cn2cc(-c3ccc4cc(C5(O)CC(F)(F)C5)sc4n3)cnc2n1 [Compound C45, 3,3-difluoro-1-(6-(2-methylimidazo[1,2-a]pyrimidin-6-yl)thieno[2,3-b]pyridin-2-yl)cyclobutanol] | 1.68 nM | 1.35 nM
Cn1cc2cc(-c3ccc4nc([C@]5(O)C[C@@](C)(C#N)C5)sc4n3)cnc2n1 (single isomer, unassigned) [Compound C91C, cis-3-hydroxy-1-methyl-3-(5-(2-methyl-2H-pyrazolo[3,4-b]pyridin-5-yl)[1,3]thiazolo[5,4-b]pyridin-2-yl)cyclobutanecarbonitrile] | 0.799 nM | 2.22 nM
Cc1c([C@@H](O)C2CCOCC2)sc2nc(-c3cnc4nn(C)cc4c3)ccc12 (single isomer, unassigned) [Compound B90S] | 488 nM | 237 nM
Cc1c([C@H](CO)C2CC(F)(F)C2)sc2nc(-c3cnc4nn(C)cc4c3)ccc12 (single isomer, unassigned) [Compound B93S] | 2.64 nM | 14.2 nM
